Reference: patent publication US4454158A, “Allyl amine MAO inhibitors” (Merrell Toraude et Compagnie, priority 1981, dated 1984)

Experiments:
MAO [1] = experiment: Inhibition of MAO - In vitro (14C p-tyramine substrate, partially purified rat brain mitochondria); assay type: biochemical; settings: tested as hydrochloride salt, read-out: IC50 (MAO inhibitory activity - In vitro)
Excerpt: (A) The ability of a compound of Formula I or II to inhibit MAO can be determined in vitro by the method of A. Christmas et al, Br. J. Pharmacol. 45, 490 (1972) in partially purified mitochondria from rat brain using ^14 C p-tyramine as the substrate.

MAO-A and MAO-B = settings: literature; cited from earlier work
MAO-B versus MAO-A = experiment: Selectivity of MAO inhibitors - In vitro (14C 5-hydroxytryptamine for MAO-A, 14C phenethylamine for MAO-B); assay type: biochemical, rat; settings: in vitro, rat brain mitochondria
Description: Mitochondria are prepared from rat brain by homogenation in phosphate buffer (0.1 M, pH 7.2) followed by differential centrifugation. The mitochondria are suspended in the same buffer, the test compound is added at the desired concentration, and the system is incubated. […] Christmas, et al, supra).
Selectivity is expressed as the ratio of the inhibitory activity against MAO-B versus the inhibitory activity against MAO-A.

MAO [2] = experiment: Inhibition of MAO - Ex vivo, rat (14C p-tyramine substrate); assay type: in vivo; settings: 0.1 mg/kg iv, 2 hr
Description: The ability of a compound of Formula I or II to inhibit MAO can be determined ex vivo by the following procedure:
The test compound is administered intraperitoneally (ip), intravenously (iv), or orally (po) to rats or mice and the animals are killed at various times after treatment. […] MAO activity is determined in the homogenates using ^14 C p-tyramine, as the substrate. […] Selectivity can be determined by repeating the above-described test using either ^14 C 5-hydroxytryptamine (for MAO-A) or ^14 C phenethylamine (for MAO-B) as the substrate for determining the % inhibition

SMILES | IC50 (MAO [1]) | also measured
NCC(=C(Br)Br)c1ccccc1 [2-phenyl-3,3-dibromoallylamine, 2-Phenyl-3,3-dibromoallylamine] | 500000 nM | 
C=C(CN)c1ccccc1 [2-phenylallylamine, 2-Phenylallylamine] | 400000 nM | 
N[C@@H]1C[C@H]1c1ccccc1 (relative stereo) [tranyclcypromine] |  | preferential inhibition of MAO-A or MAO-B (in words) (MAO-A and MAO-B): not preferential in their action upon MAO
NNCCc1ccccc1 [phenelzine] |  | preferential inhibition of MAO-A or MAO-B (in words) (MAO-A and MAO-B): not preferential in their action upon MAO
NCC(=C(F)F)c1ccccc1 [2-phenyl-3,3-difluoroallylamine, 2-Phenyl-3,3-difluoroallylamine] | 10000 nM | 
C=C(CN)c1cccc(O)c1 [2-(3-hydroxy)phenylallylamine, 2-(3'-Hydroxy)phenylallylamine] | 250 nM | 

Further lines, with some results ahead:

IC50 (MAO [1]) | SMILES | also measured
7 nM | NC/C(=C/F)c1cccc(C(F)(F)F)c1 [(E)-2-(3'-trifluoromethyl)phenyl-3-fluoroallylamine] | 
2500 nM | COc1ccccc1/C(=C\F)CN [(E)-2-(2'-Methoxy)phenyl-3-fluoroallylamine] | 
5 nM | COc1cccc(/C(=C\F)CN)c1 [(E)-2-(3'-Methoxy)phenyl-3-fluoroallylamine] | Selectivity (ratio of inhibitory activity against MAO-B versus MAO-A) (MAO-B versus MAO-A): 4; % Inhibition of MAO - Duodenum (MAO [2]): 90%; % Inhibition of MAO - Heart (MAO [2]): 98%; % Inhibition of MAO - Liver (MAO [2]): 70%
3000 nM | CCNC/C(=C/F)c1cccc(OC)c1 [(E)-N-Ethyl 2-(3'-methoxy)phenyl-3-fluoroallylamine] | 
20 nM | NC/C(=C/F)c1ccc(Cl)cc1 [(E)-2-(4'-Chloro)phenyl-3-fluoroallylamine] | Selectivity (ratio of inhibitory activity against MAO-B versus MAO-A) (MAO-B versus MAO-A): 10
50 nM | NC/C(=C/F)c1cccc(O)c1 [(E)-2-(3'-hydroxy)phenyl-3-fluoroallylamine] | 
